Assay results taken from US5075224A, “Prepro-LHRH C-terminal peptide DNA” (Genentech, Inc., priority 1991, dated 1991).
Ends that are not written are not given here. Peptide text beside a SMILES is read from it.

System: Pituitary cells from female Sprague-Dawley rats
Experiment: LH and FSH release from rat pituitary cell culture
Format: cell-based
Method: Pituitary cells from female Sprague-Dawley rats were established in cell culture by the method of K. Nikolics et al., "Peptides" 2: 65-73 (1981). 1 ml of about 1×10^-8 molar concentration of GAP or LHRH in medium 199 (a nutrient medium) was added to a four day pituitary cell culture per 5×10^5 cells. After 4 hours incubation at 37° C. in 5 percent CO2 /95 percent air the cell culture supernatant fluids were assayed for release of LH and FSH.
The anterior pituitary cell culture from female Sprague-Dawley rats was prepared as described in Example 6. In FIG. 7A the indicated concentrations of GAP (open circles, 10^-11 M; open squares, 3×10^-11 M; closed circles 10^-10 M; open squares, triangle 10^-8 M) were incubated with 5×10^5 cells/ml medium in 24-well culture plates for the indicated time. Media were assayed for PRL and values were expressed in terms of rPRL-RP-2 reference protein (National Pituitary and Hormone Program). The points are means ± standard deviation of four parallel culture wells of which duplicate samples were assayed by RIA. Basal levels were determined from eight parallel wells. The curves shown represent data obtained in three to five independent cell cultures.

[1] = 10^-8 M test sample, 4 hours incubation at 37° C., four day pituitary cell culture, supernatant

Compound: DAENLIDSFQEIVKEVGQLAETQRFECTTHQPRSPLRDLKGALESLIEEETGQKKI [GAP]
- ED50 of stimulation of FSH secretion: ~0.5 nM

Compound: CC(C)C[C@H](NC(=O)[C@H](CC(=O)O)NC(=O)[C@H](CCCNC(=N)N)NC(=O)[C@H](CC(C)C)NC(=O)[C@@H]1CCCN1C(=O)[C@H](CO)NC(=O)[C@H](CCCNC(=N)N)NC(=O)[C@@H]1CCCN1C(=O)[C@H](CCC(N)=O)NC(=O)[C@H](Cc1c[nH]cn1)NC(=O)[C@@H](NC(=O)[C@@H](NC(=O)[C@@H](N)CS)[C@@H](C)O)[C@@H](C)O)C(=O)N[C@@H](CCCCN)C(=O)O [CTP-core polypeptide of Example 4, NH2 -cys-thr-thr-his-gln-pro-arg-ser-pro-leu-arg-asp-leu-lys-COOH] (H-CTTHQPRSPLRDLK-OH)
- activity in LH and FSH release (in words) (rat pituitary cells): active in LH and FSH release, albeit at higher concentrations than required for GAP

Compound: CC(C)C[C@H](NC(=O)CNC(=O)[C@H](Cc1ccc(O)cc1)NC(=O)[C@H](CO)NC(=O)[C@H](Cc1c[nH]c2ccccc12)NC(=O)[C@H](Cc1c[nH]cn1)NC(=O)[C@@H]1CCC(=O)N1)C(=O)N[C@@H](CCCNC(=N)N)C(=O)N1CCC[C@H]1C(=O)NCC(N)=O [LHRH]
- FSH (pg)/5 × 10^5 cells [1]: 11403 ± 350 pg/5 × 10^5 cells
- LH (pg)/5 × 10^5 cells [1]: 30503 ± 3342 pg/5 × 10^5 cells
- EC50 (rat anterior pituitary cells, read-out: Half-maximal stimulation of LH release): 0.8 nM
